The text below walks through data of PMC2783949 (Bioorganic & medicinal chemistry, 2009).

For one data set, the system named is solid tumors. The following applies: mice; cited from earlier work.
The next data set relates to murine leukemias. Conditions: cited from earlier work.
A short description of data set [1]: Oxidation of H-phosphinate 2 into PALA, 31P-NMR monitoring. The data set is classed as physicochemical. Conditions: neutralized compound, over a period of two weeks.
In data set [2] the target is catalytic subunit of E. coli ATCase (Escherichia coli, UniProt P0A786). Conditions: for Inhibition Constant (Ki): pH 8.3; for mode of inhibition: relative to carbamyl phosphate.
Sequence of catalytic subunit of E. coli ATCase (P0A786 2-311): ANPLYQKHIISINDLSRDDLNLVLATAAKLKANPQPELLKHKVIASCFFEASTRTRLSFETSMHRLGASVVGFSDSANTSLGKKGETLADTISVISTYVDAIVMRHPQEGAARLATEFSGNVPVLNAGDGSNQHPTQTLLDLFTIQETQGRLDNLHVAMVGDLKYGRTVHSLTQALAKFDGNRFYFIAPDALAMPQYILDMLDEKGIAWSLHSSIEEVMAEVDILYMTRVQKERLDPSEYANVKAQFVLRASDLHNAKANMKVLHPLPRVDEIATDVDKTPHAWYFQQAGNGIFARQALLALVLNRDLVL

Entries after “also recorded” stand apart in the source; their conditions may differ.

In the case of `O=C(O)C[C@H](NC(=O)CP(=O)(O)O)C(=O)O` [Compound 1, N-phosphonacetyl-L-aspartate], the “effect on solid tumors” value in the data set with solid tumors is “eradicated solid tumors in mice”. Also, the “effect on murine leukemias” value in the data set on murine leukemias is “murine leukemias were resistant”.

`O=C(O)C[C@H](NC(=O)C[PH](=O)O)C(=O)O` [Compound 2]: the “oxidation of 2 into PALA” value in data set [1] is on record as “could not be detected”. Moreover, in data set [2], the “inhibition of ATCase (in words)” value was “good inhibitor; also recorded: submicromolar inhibitors”.

On to `O=C(O)C[C@H](NC(=O)C[PH](=O)CO)C(=O)O` (some centres unmarked) [Compound 3], for which the “inhibition of ATCase (in words)” value in data set [2] was “submicromolar inhibitors”.

As for `O=C(O)C[C@@H](C(=O)O)N1CCP(=O)(O)CC1` [Compound 14], in data set [2], the “inhibition of ATCase (in words)” value is “totally inactive” and the “Inhibition Constant (Ki)” value is “inactive”.

Turning to `O=C(O)C[C@@H](C(=O)O)N1CP(=O)(O)CC1=O` [Compound 19, 2-(3-Hydroxy-3,5-dioxo-3l5-[1,3]azaphospholidin-1-yl)-succinic acid], in data set [2], the “inhibition of ATCase (in words)” value was “inactive” and the “Inhibition Constant (Ki)” value is “inactive”.

Regarding `O=C(O)C[C@H](NC(=O)CP(=O)(O)CCO)C(=O)O` [Compound 22], in data set [2], the “inhibition of ATCase (in words)” value was “significant inhibitory activity” and the mode of inhibition entry is “uncompetitive”.

Turning to `O=C(O)C[C@H](NC(=O)CP(=O)(O)CC(=O)O)C(=O)O` [Compound 24], the mode of inhibition entry in data set [2] is on record as “competitive inhibitor”.

As for `O=C(O)C[C@@H](C(=O)O)N1CCP(=O)(O)CC1=O` [Compound 27, 2-(4-Hydroxy-2,4-dioxo-4λ[5]-[1,4]azaphosphinan-1-yl)-succinic acid], in data set [2], the “inhibition of ATCase (in words)” value is given as “significant inhibition; also recorded: micromolar-level inhibitor”. In addition, in data set [2] (Km of carbamyl phosphate over Ki of inhibitor), the “Km(CP)/Ki” value turned out to be 28.

On to `O=C(O)C[C@H](NC(=O)OCP(=O)(O)O)C(=O)O` [Compound 32, 2-Phosphonomethyl-oxycarbonylamino-succinic acid], for which, in data set [2], the “inhibition of ATCase (in words)” value is “does not inhibit ATCase at all” and the “Inhibition Constant (Ki)” value was “inactive”.

Regarding `O=C(O)C[C@H](NC(=O)CC(C(=O)O)C(=O)O)C(=O)O` [Compound 38], in data set [2], the “inhibition of ATCase (in words)” value was “none of the carboxylates 38, 40, and 42 displayed any significant inhibition”.

In the case of `O=C(O)CC(=O)N[C@@H](CC(=O)O)C(=O)O` [Compound 40], the “inhibition of ATCase (in words)” value in data set [2] was “none of the carboxylates 38, 40, and 42 displayed any significant inhibition; also recorded: inactive”.

With `O=C(O)CCC(=O)N[C@@H](CC(=O)O)C(=O)O` [Compound 42], in data set [2], the “inhibition of ATCase (in words)” value was “none of the carboxylates 38, 40, and 42 displayed any significant inhibition”.

For the compound `NC(=O)OP(=O)(O)O` [carbamyl phosphate], the Km in data set [2] (substrate of ATCase) turned out to be 28 µM.
